The experiment concerns the target T1, human c-Met (Homo sapiens, UniProt P08581).
T1 construct: Recombinant GST-tagged cytosolic domains of human c-Met; 6xHis; made in house; host or cells: Sf9 or Sf21 insect cells (baculovirus, Pharmingen vector pGcGHLT-A, B or C)
In words: In vitro kinase assay (homogeneous time-resolved tyrosine kinase assay, HTRF) for c-Met. The class given is biochemical. The following applies: recombinant GST-tagged cytosolic domain of c-Met, 0.2 nM c-Met, 50 μM MgATP, 80 min at room temperature. An excerpt: Recombinant GST-tagged cytosolic domains of human c-Met and other receptor tyrosine kinases including mouse c-Met, human Ron, KDR, IGFR, EGFR, FGFR, Mer, TrkA and Tie2 are used to determine whether the compounds of the instant invention modulate the enzymatic activities of these kinases.
Soluble recombinant GST-tagged cytosolic domains of c-Met and other receptor tyrosine kinases are expressed in a baculovirus system (Pharmingen) according to a protocol recommended by the manufacturer. The c-DNA encoding each cytosolic domain is subcloned into a baculovirus expression vector (pGcGHLT-A, B or C, Pharmingen) containing an in frame 6× histidine tag and a GST tag. […] The protein concentrations of the fusion proteins are determined using Coomassie Plus Protein Assay (Pierce) with BSA as standard.
The kinase activities of c-Met and other kinases are measured using a modified version of the homogeneous time-resolved tyrosine kinase assay described by Park et al. (1999, Anal. Biochem. 269:94-104).
The procedure for determining the potency of a compound to inhibit c-Met kinase comprises the following steps: • 1. […] Read HTRF signals on a Victor reader (PerkinElmer) in HTRF mode after 60 min. • 6. IC50 is determined by fitting the observed relationship between compound concentration and HTRF signal with a 4-parameter logistic equation. […]
In general terms: Time-resolved FRET reads energy transfer from a long-lived donor to a nearby acceptor.

From US7550478B2, “Tyrosine kinase inhibitors” (Merck & Co. Inc., priority 2006, dated 2009) come the findings set out here.

SMILES strings stand for the structures.

T1 sequence (P08581 956-1390 limits assumed): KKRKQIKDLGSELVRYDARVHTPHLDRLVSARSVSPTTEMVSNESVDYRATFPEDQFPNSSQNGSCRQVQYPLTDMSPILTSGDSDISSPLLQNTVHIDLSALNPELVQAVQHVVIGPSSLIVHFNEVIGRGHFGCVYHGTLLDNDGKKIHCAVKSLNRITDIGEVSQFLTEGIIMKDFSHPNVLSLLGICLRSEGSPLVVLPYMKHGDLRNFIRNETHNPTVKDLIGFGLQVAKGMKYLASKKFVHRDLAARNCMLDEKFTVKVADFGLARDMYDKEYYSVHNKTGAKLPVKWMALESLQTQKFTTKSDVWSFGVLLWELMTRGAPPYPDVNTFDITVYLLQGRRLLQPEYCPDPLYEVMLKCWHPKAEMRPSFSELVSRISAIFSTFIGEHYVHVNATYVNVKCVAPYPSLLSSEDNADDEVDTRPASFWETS

Usually IC50 stands for the point on the concentration scale where inhibition reaches its midpoint. Take `O=c1c2cc(-c3ccccc3)cnc2ccc2cccc(Br)c12` [Compound 3, 6-bromo-3-phenyl-5H-benzo[4,5]cyclohepta[1,2-b]pyridin-5-one]: the IC50 is no more than 50 µM.
